How the values were obtained:
Aβ(1-42) [1] = molecular target: T1, Aβ(1-42) (Homo sapiens, UniProt P05067); format: biochemical; conditions: FIG. 10; 32.8 μM and 16.4 μM Aβ(1-42), 20 mM AmpOx, 6 h at room temperature, 6% DMSO, 100,000 g centrifugation
T1 construct: Aβ(1-42) was used as the model molecule in the aggregation experiments
Description: Aβ(1-42) solutions were incubated under various conditions and their aggregation was analysed by a 100,000 g spin in an ultracentrifuge.
The Aβ(1-42) dissolved in 100% DMSO was diluted to a concentration of 11 μM in 10 mM of sodium phosphate buffer pH 7.2. All samples contained 22 nM of oregon green labelled Aβ(1-42) and were incubated for 48 hours at room temperature in 10% DMSO.
Aβ(1-42) was dissolved in 100% DMSO and diluted to a concentration of 32.8 μM and 16.4 μM in 10 mM of sodium phosphate buffer pH 7.2. The protein was incubated at room temperature for 6 h in 6% DMSO with and without 20 mM AmpOx.

[2] = Solubility of aminopyrazoles in DMSO and after dilution in sodium phosphate buffer
Description: These aminopyrazoles were dissolved in 100% DMSO. […] In order to eliminate particles, these dissolved solutions of aminopyrazoles were resolved in 10 mM of sodium phosphate buffer pH 7.2 to a final DMSO concentration of 5%. They were then filtered with Microcon YM 10 tubes.

Aβ(1-42) [3] = molecular target: T1, Aβ(1-42); test: Aβ(1-42) aggregation assay by Fluorescence Correlation Spectroscopy (FCS); format: biochemical; conditions: 5.5-11 μM Aβ(1-42) + 22 nM oregon green-labelled Aβ(1-42), 10 nM of aminopyrazole (referring to the initial solution), 5-10% DMSO, 10 mM sodium phosphate buffer pH 7.2, room temperature, 12-72 hours

T1 sequence (P05067 672-713 limits assumed): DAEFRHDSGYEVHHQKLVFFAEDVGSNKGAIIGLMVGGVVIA

Cc1cc(NC(=O)C(=O)Nc2cc(C)[nH]n2)n[nH]1 [AmpOx, N,N′-Bis-(−5-methyl-1H-pyrazole-3-yl)-oxalic acid diamide]
distribution of Aβ(1-42) between supernatant (S) and pellet (P), compared with the Trimer result (Aβ(1-42) [1]): almost identical results | solubility in 100% DMSO [2]: not completely soluble | inhibition of Aβ(1-42) aggregation (Aβ(1-42) [3]): able to disturb or inhibit the aggregation of Aβ(1-42)

COC(=O)c1cc(NC(=O)c2cc(NC(=O)c3cc([N+](=O)[O-])[nH]n3)[nH]n2)[nH]n1 [Trimer]
inhibition of Aβ(1-42) aggregation (Aβ(1-42) [3]): able to disturb or inhibit the aggregation of Aβ(1-42)
